What is called GI50 is the concentration that inhibits growth by half.

What all share (assay): DTP human tumour cell line panel, 48 h
Assay [1] has as its system SNB-75.
In assay [2] the test system is Malme-3M.
Assay [3] concerns SK-MEL-2.
In assay [4] the test system is LOX IMVI.
Assay [5] has as its system OVCAR-8.
The subject of assay [6] is IGROV-1.
The subject of assay [7] is HCC 2998.
The subject of assay [8] is RXF 393.
In assay [9] the test system is NCI-H23.
The subject of assay [10] is ACHN.
The subject of assay [11] is BT-549.
In assay [12] the test system is MDA-MB-435.
The subject of assay [13] is CAKI-1.
Assay [14] concerns MCF7.
Assay [15] deals with HCT-116.
The test system of assay [16] is CCRF-CEM.
Assay [17] has as its system UO-31.
The subject of assay [18] is OVCAR-5.
Assay [19] has as its system SN12C.
Assay [20] has as its system SK-MEL-28.

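Assay format: 96-well plates, 48-hour exposure. Here, GI50 denotes the concentration required for 50% inhibition of growth.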 The source made the active and inactive calls. Cut-off read from the data, not from the text of the source: active = GI50 up to about 1.1 µM and inactive = higher.

Regarding `CCCS(=O)(=O)Nc1ccc(Nc2c3ccccc3nc3ccccc23)c(OC)c1`, the GI50 in [1] is 1.04 µM (active); in [2], 1.04 µM (active); in assay [3] it was 2.86 µM (inactive); in assay [4], 0.315 µM (active); in assay [5] it was 1.2 µM (inactive); in [6], 1.31 µM (inactive). Moreover, the GI50 in assay [7] was 2.1 µM (inactive); in assay [8], 5.19 µM (inactive); in assay [9], 0.421 µM (active); in [10], 0.362 µM (active); in assay [11], 2.37 µM (inactive); in [12], 5.28 µM (inactive). Also, the GI50 is 0.4 µM (active) in [13]; 0.365 µM (active) in assay [14]; 0.929 µM (active) in assay [15]; 0.0475 µM (active) in assay [16]; 1.08 µM (active) in assay [17]; 8.63 µM (inactive) in [18]. For the same compound, the GI50 in [19] is 0.127 µM (active).

On to `Cc1c(CNc2ccc(Cl)c(Cl)c2Cl)cnc2nc(N)nc(N)c12`, for which the GI50 in [1] was 10.4 µM (inactive); in [2], 3.12 µM (inactive); in [3] it was 27.1 µM (inactive); in assay [4], 0.064 µM (active); in [5] it was 0.053 µM (active); in assay [6], 0.499 µM (active). Besides, the GI50 is 3.17 µM (inactive) in assay [7]; 11.9 µM (inactive) in assay [8]; 0.255 µM (active) in assay [9]; 0.3 µM (active) in assay [10]; 24.9 µM (inactive) in assay [11]; 5.33 µM (inactive) in [20]. Also, the GI50 is 0.107 µM (active) in assay [12]; > 100 µM (inactive) in assay [13]; 0.792 µM (active) in assay [14]; 0.0208 µM (active) in assay [15]; 0.125 µM (active) in assay [16]; 2.44 µM (inactive) in assay [17]. Further, the GI50 in assay [18] was 11 µM (inactive); in assay [19] it was 1.36 µM (inactive).

With `OC(CC(CC(O)(C(F)(F)Cl)C(F)(F)Cl)=NNc1ccccc1)(C(F)(F)Cl)C(F)(F)Cl`, the GI50 in assay [1] was 2.71 µM (inactive); in assay [2] it was 3.7 µM (inactive); in [3] it was 1.4 µM (inactive); in assay [4], 2.94 µM (inactive); in assay [5], 2.9 µM (inactive); in assay [6], 5.62 µM (inactive). The GI50 in assay [7] is 4.23 µM (inactive); in assay [8], 2.8 µM (inactive); in assay [9], 2.41 µM (inactive); in [10], 2.79 µM (inactive); in assay [11], 1.94 µM (inactive); in assay [20] it was 2.92 µM (inactive). Also, the GI50 is 3.57 µM (inactive) in assay [12]; 2.9 µM (inactive) in [13]; 2.94 µM (inactive) in assay [14]; 1.98 µM (inactive) in [15]; > 10 µM (inactive) in assay [16]; 3.66 µM (inactive) in assay [18]. Besides, the GI50 in [19] was 3.36 µM (inactive).

On to `ClC(Cl)=C1C(=C(Cl)Cl)C(Cl)(Cl)C1(Cl)Cl`, for which the GI50 in assay [1] is 3.18 µM (inactive); in assay [2], 2.42 µM (inactive); in [3], 1.29 µM (inactive); in [4] it was 0.212 µM (active); in assay [5], 1.49 µM (inactive); in assay [6] it was 5.55 µM (inactive). In addition, the GI50 in [7] was 4.78 µM (inactive); in assay [8] it was 1.45 µM (inactive); in assay [9] it was 1.04 µM (active); in assay [10], 2.48 µM (inactive); in assay [11], 2.77 µM (inactive); in assay [20], 1.44 µM (inactive). The GI50 in [12] is 2.71 µM (inactive); in assay [13], 2.89 µM (inactive); in assay [14], 4.47 µM (inactive); in assay [15], 1.36 µM (inactive); in assay [16], 0.101 µM (active); in assay [17] it was 3.05 µM (inactive). Also, in assay [18], the GI50 is 2.64 µM (inactive).

On to `N#Cc1cnn2c1n[n+]([O-])c1ccc(Cl)cc12`, for which the GI50 was 6.9 µM (inactive) in assay [1]; 7.69 µM (inactive) in assay [2]; 7.31 µM (inactive) in assay [3]; 3.98 µM (inactive) in [4]; 11.5 µM (inactive) in [5]; 4.14 µM (inactive) in [6]. The GI50 in assay [7] is 1.92 µM (inactive); in assay [8] it was 15 µM (inactive); in assay [9] it was 5.7 µM (inactive); in assay [10], 5.79 µM (inactive); in assay [11], 12.8 µM (inactive); in [20] it was 13.2 µM (inactive). Besides, the GI50 in [12] is 11.9 µM (inactive); in assay [13], 1.26 µM (inactive); in assay [14] it was 28.7 µM (inactive); in assay [15] it was 8.75 µM (inactive); in [16] it was 1.75 µM (inactive); in assay [17] it was 13.5 µM (inactive). Moreover, the GI50 in assay [18] is > 45.1 µM (inactive); in assay [19], 7.91 µM (inactive).

For the compound `Cc1ccc2nc(NC(=O)C(=O)C3C(=O)NC(=S)NC3=O)sc2c1`, the GI50 in assay [1] is > 100 µM (inactive); in [2], 55.6 µM (inactive); in assay [3] it was > 100 µM (inactive); in assay [4], > 100 µM (inactive); in [5], > 100 µM (inactive); in assay [6], 49.4 µM (inactive). The GI50 in assay [7] was > 100 µM (inactive); in [8], 43.6 µM (inactive); in [9] it was > 100 µM (inactive); in [10], > 100 µM (inactive); in [11] it was > 100 µM (inactive); in assay [20] it was > 100 µM (inactive). In addition, the GI50 in assay [12] was > 100 µM (inactive); in assay [13] it was > 100 µM (inactive); in assay [14] it was > 100 µM (inactive); in assay [15], > 100 µM (inactive); in assay [16] it was > 100 µM (inactive); in [17], 77.3 µM (inactive). For the same compound, the GI50 in [18] and in [19] was > 100 µM (inactive) throughout.

Take `COc1ccc(/C=C(\Cl)c2ccc(OC)c(OC)c2)cc1OC`: the GI50 in assay [1], in [2], in assay [3], in assay [4], in assay [5] and in assay [6] was > 100 µM (inactive) each time. Also, the GI50 in assay [7] was > 100 µM (inactive); in [8], > 90.4 µM (inactive); in assay [9], > 100 µM (inactive); in [10], > 100 µM (inactive); in assay [11], > 100 µM (inactive); in [20] it was > 100 µM (inactive). Also, the GI50 in [12], in assay [13], in assay [14], in [15], in assay [16] and in [17] was > 100 µM (inactive) throughout. For the same compound, the GI50 in [18] and in assay [19] was > 100 µM (inactive) in each case.

Consider `Brc1c(C#CCC2CCCCC2)ccc(C#CCC2CCCCC2)c1Br`, for which the GI50 in assay [1], in assay [2], in assay [3], in assay [4], in assay [5] and in [6] was > 100 µM (inactive) in each case. In addition, the GI50 in assay [7], in [8], in [10], in assay [11], in assay [20] and in [12] was > 100 µM (inactive) in each case. Moreover, the GI50 in assay [13], in assay [14], in [16], in [18] and in assay [19] was > 100 µM (inactive) in each case.

On to `COc1ccc(/N=N/c2c(C)c(C#N)c(=S)n(C3OC(CO)C(O)C(O)C3O)c2-c2ccccc2)cc1` (stereo unspecified), for which the GI50 in assay [1] was 17.2 µM (inactive); in [2] it was 30.6 µM (inactive); in [3], 33 µM (inactive); in [4], 27.8 µM (inactive); in [6], 30.4 µM (inactive); in [7] it was 88.5 µM (inactive). Also, the GI50 in assay [8] is 28 µM (inactive); in assay [9], 28.4 µM (inactive); in assay [10] it was 26 µM (inactive); in assay [11], 38 µM (inactive); in assay [20], 25.3 µM (inactive); in [12], 24.5 µM (inactive). Besides, the GI50 in assay [13] is 24.2 µM (inactive); in assay [14], 38.3 µM (inactive); in [15], 30.1 µM (inactive); in [16], 20 µM (inactive); in assay [17], 39.4 µM (inactive); in assay [18], 36.9 µM (inactive). Further, in assay [19], the GI50 is 32.3 µM (inactive).

As to `N#Cc1c(-c2ccc([N+](=O)[O-])cc2)c(C#N)c(=O)n(NS(=O)(=O)c2ccccc2)c1S`, the GI50 in assay [1] was 39.6 µM (inactive); in assay [2] it was 48.1 µM (inactive); in assay [3] it was 19.2 µM (inactive); in assay [4] it was 18.4 µM (inactive); in assay [5], 33.2 µM (inactive); in assay [6], 19.2 µM (inactive). In addition, the GI50 in assay [7] is 40.6 µM (inactive); in assay [8], 33 µM (inactive); in assay [10] it was 37.8 µM (inactive); in assay [11], 15.5 µM (inactive); in assay [20] it was 61.9 µM (inactive); in assay [12], 38.5 µM (inactive). The GI50 in assay [13] was 66.4 µM (inactive); in assay [14] it was 31.4 µM (inactive); in assay [15], 19.4 µM (inactive); in [16], 16 µM (inactive); in assay [18] it was 61 µM (inactive); in [19] it was 17.4 µM (inactive).

These data come from ChEMBL document CHEMBL1201862, “PubChem BioAssay data set” (2004).
